Test results from patent US20110104064A1, “CYCLIZED NON-NATIVE SYNTHETIC PEPTIDE AND COMPLEX OF PEPTIDES COMPRISING SAID CYCLIZED PEPTIDE, INTENDED TO INDUCE AND TO CH[…] PREVENTION OR TREATMENT OF CONDITIONS IN MAMMALS” (priority 2008, published 2011).
Bridges are numbered along the chain shown (N, C = ends). Where no end group is shown, it is not given here.

How the values were obtained:
monocytes = assay: Leishmanicidal activity of monocytes (cell-mediated Th1 response); format: cell-based, dog; details: for immune response after vaccination (summary of Table I): dogs, 1 month after the 3rd injection, with adjuvant QA21
Text: (§1) This evidence was gathered using two techniques: • Assaying the leishmanicidal activity of the monocytes according to the method described previously (Patent FRO1076060); • Detection of dog IgG2, specific to the cyclized peptide E34P and the carboxyterminal group of PSA.
(§2) Biological analysis consisted of: • Serology of specific IgG2 of cyclized peptide E34P and of the carboxyterminal group of PSA; • Leishmaniasis serology: quantitative immunofluorescence of the total IgG (sign of infection); • Leishmanicidal activity of the monocytes (cell-mediated response).

Leishmania = assay: Infection test in vaccinated dogs, parasitology from marrow punctures; format: in vivo; details: four months after the infection test
Protocol: The infection test consisted of intravenously injecting 10^8 complement-treated promastigotes in metacyclic phase from a healthy dog and 5×10^8 peritoneous macrophages from a healthy dog, infected in vitro by amastigotes.
The promastigotes and the infected macrophages were diluted in sterile physiological serum to a final volume of 1.5 mL. This mixture was made up just prior to injection.
A parasitological examination was carried out from samples taken directly from the dog.
A smear from the bone-marrow puncture was made on a slide. This smear, once fixed in methanol was May Grümwald Giemsa stained and studied under an immersion microscope (×1000).
Some bone-marrow samples were cultivated in a biphasic culture medium NNN (Novy and Mac Neal, 1904, 4. Infec. Dis., 1:1-30) of which RPMI 1640 added to 20% of decomplemented fetal veal serum made up the liquid phase. Random subculturing was carried out every 4 to 6 days. The cultures were regularly studied by photon microscope (×400) for 20 minutes.
The parasitemias were quantified as follows: • +/−: elongated, immobile, refringent forms • +: 1 to 5 mobile/field promastigote forms • ++: >5 mobile/field promastigote forms • +++: cultivated to confluence.
It was necessary to add to these analyses the study of Leishmania by direct observation under microscope and culture in NNN medium from the bone-marrow after the infection test. […]

[1] = test system: Leishmania promastigotes and amastigotes; assay: Inhibition of parasitic growth by serums from vaccinated dogs; format: cell-based; details: in vitro
Protocol: Inhibition of the growth of promastigotes and amastigotes in the presence of IgG2 (Patent FR0209506).
The role of the IgG2 on the viability and growth of Leishmania promastigotes and amastigotes was analyzed with immunoserums from dogs vaccinated with the mixture including the cyclized peptide E34P and the serums from the placebo dogs.

cyclized peptide E34P = assay: ELISA serology of dog IgG2 vs. cyclised E34P after vaccination; format: in vivo; details: non-cyclization at Cys9/Cys15
Protocol: as §1
This detection was carried out by the ELISA method according to the microtitration technique of Kweider et al. (J. Immunol, 1987, 138, 299) by using an anti IgG2 conjugate. For this method, the peptide is biotinylated before coating onto microplates. This bonding to […] biotin-type molecules has the effect of rendering the cyclized peptide E34P more antigenic. We also use the recombinant protein coding for the carboxyterminal group of the PSA as antigen.
Biological analyses were carried out: • Before any injection • 1 month after the 3rd injection.
as §2

| Substance | immune response after vaccination (summary of Table I) (monocytes) | protection after the infection test (summary of Table II) (Leishmania) | neutralizing / anti-parasitic role of the induced IgG2 [1] | Th1 stimulation (monocytes; peptide used alone or in combination with other peptides) | IgG2 synthesis (cyclized peptide E34P) |
| --- | --- | --- | --- | --- | --- |
| EDEHKGKYCRLGNDCRTTEPTTTATPRGTPTPAP (EDEHKGKYCRLGNDCRTTEPTTTATPRGTPTPAP; disulfide 9-15) [Group E34P] | only partial response | insufficient to induce an effective response | induces IgG2 immunoglobulins capable of neutralizing the proliferation | – | – |
| NON-cyclized peptide E34P: the non-cyclized form of peptide E34P (SEQ ID No. 1 without Cys9/Cys15 disulfide bridge) (EDEHKGKYCRLGNDCRTTEPTTTATPRGTPTPAP; non-cyclized, no disulfide; Fully-synthetic sequence) | less effective than the cyclized E34P | – | – | only induces very partial Th1 stimulation | only induces slight IgG2 synthesis |
